Reference: patent publication US20140121182A1, “PROTEASOME INHIBITORS AND PROCESSES FOR THEIR PREPARATION, PURIFICATION AND USE” (Cephalon, Inc., priority 2011, published 2014)

Key:
[1] = Storage for approximately one year at ambient indoor temperature and humidity, HPLC purity; type: physicochemical; details: in a vial at the rear of a fume hood
Protocol: A 100 mL three neck round bottom flask equipped with a stir bar, thermocouple and nitrogen inlet is charged with 6.0 g (16.6 mmol) of Compound 1 (98.5A % purity) and 60 mL of ethyl acetate then stirred for five minutes at room temperature to dissolve the solids. Diethanol amine (1.68 g, 16.0 mmol) is charged and solids begin to form when addition is only ⅔ complete. The white slurry is stirred at room temperature for two hours and then the solids are collected by vacuum filtration, washed with 50 mL of ethyl acetate and dried overnight in a vacuum oven at 40° C. A quantitative yield of the desired product is obtained as a crystalline solid with an HPLC purity of 99.7A %. After storing for approximately one (1) year at ambient indoor temperature and humidity (in a vial at the rear of a fume hood), the HPLC purity was 99.9A %. ^1H NMR (d6-DMSO, 400 MHz) δ 8.8 (t, 1H, J=5.88 Hz), 7.55 (s, 2H), 7.52 (s, 1H), 6.99 (d, 1H, J=8.36 Hz), 6.57 (s, b, 1H), 3.85 (dq, 1H, J=16.1, 5.92 Hz), 3.69 (m, 2H), 3.57 (m, 1H), 3.14 (m, 1H), 2.99 (m, 2H), 2.75 (m, 1H), 2.69 (m, 1H), 1.59 (m, 1H), 1.31 (m, 1H), 1.22 (m, 1H), 0.824 (d, 3H, J=6.64 Hz), 0.797 (D, 3 h, J=6.48 Hz)
A 15 mL one neck round bottom flask equipped with a stir bar and nitrogen inlet is charged with 0.5 g (1.39 mmol) of Compound 1 (98.5A % purity) and 5 mL of ethyl acetate then stirred for five minutes at room temperature to dissolve the solids. Diisopropanolamine (185 mg, 1.39 mmol) is charged and stirred at room temperature. The white precipitate is collected by vacuum filtration, washed with 5 mL of ethyl acetate and dried overnight under nitrogen on the filter to give 410 mg (0.895 mmol, 64%) of the desired product with an HPLC purity of 99.4A %. […]

[2] = Comparative bioavailability: pharmacokinetic parameters for Compound 1 in rat plasma and blood after single iv and oral doses of its esters; type: in vivo, male Sprague Dawley rats; details: for AUC0-t / AUC0-∞ / CL / Vd / t½ / Cmax / Oral Bioavailability / Tmax: mean ± SEM
Protocol: Three adult male Sprague Dawley rats are used in each treatment group. The rats are fasted overnight prior to oral dose administration. Intravenous (IV) administration is via the lateral tail vein and oral doses are administered by gavage. The compound is administered iv or orally in a vehicle of phosphate buffered saline.
For blood collection, each rat (unanesthetized) is placed in a clear Plexiglas® restraining tube, and blood samples (approximately 0.25 mL) are drawn from a lateral tail vein into heparinized collection tubes at predetermined sampling times (0.083, 0.25, 0.5, 1, 2, 4, and 6 hours post dose). No pre-dose samples are obtained. The exception to this procedure is the last sampling time in which the animals are sacrificed by decapitation and trunk blood is obtained rather than blood via a tail vein. The blood samples are placed on wet ice until centrifuged to separate plasma. The whole blood and the plasma fraction are transferred into clean dry tubes, frozen on dry ice and stored at approximately −20° C. pending analysis.
Blood or plasma is prepared for high performance liquid chromatography (HPLC)/mass spectrometric analysis according to standard protocol following protein precipitation with acetonitrile containing an internal standard. The blood or plasma samples are then analyzed for Compound 1 and alprenolol (internal standard) via HPLC coupled with tandem mass spectrometry.
The blood and plasma concentration data for all rats are entered into Excel spreadsheets in preparation for pharmacokinetic analysis. Pharmacokinetic parameters for Compound 1 are estimated for each rat by non-compartmental analysis (Gibaldi M, Perrier D. Pharmacokinetics, 2nd edition, Marcel Dekker, New York, Chapter 11, 1982) of the blood or plasma concentration versus time data using WinNonlin software (Professional Version 4.1a, Pharsight Corporation, Palo Alto, Calif., 2003).
The maximum blood or plasma concentration (Cmax) is the highest observed concentration after an oral dose; tmax is the corresponding time when Cmax is observed. The terminal rate constant for elimination from blood or plasma (β) is estimated by linear regression of the terminal portion of the semi-logarithmic plasma concentration versus time curve. The apparent terminal half-life (t1/2) is calculated as 0.693 divided by β. The area under the blood or plasma concentration versus time curve from time zero to the time of the last measurable concentration (AUC0-t) after a single dose is determined by the linear trapezoidal rule. The area from zero to infinity (AUC0-∞) is calculated as the sum of AUC0-t and the area extrapolated from the last measurable concentration to infinity (Clast/β). Concentrations pre dose are all assumed to be zero for the purpose of calculation of the AUC. Oral bioavailability is determined by dividing the dose normalized oral AUC0-∞ by the […] from iv dosing and multiplying by 100 to express the ratio as a percent.
The mean±SEM. pharmacokinetic parameters for Compound 1 in male Sprague Dawley rats administered as single iv and oral doses of the citric acid ester of Compound 1 (“Form 1” or “Form 2”) or the diethanolamine ester of Compound 1 (“DEA Adduct”; i.e., boronic ester of Formula X) are shown in Tables 5-10 and corresponding FIGS. 5-10.

[3] = Storage stability in freezer / under ambient conditions; type: physicochemical
Description: Compound 1 is obtained as a non-crystalline solid using the process set forth in US 2009/0325903. Compound 1 is obtained as a mixture of monomer and the trimer anhydride N,N′,N″-boroxin-2,4,6-triyltris {{(1R)-3-methylbutane-1,1-diyl]imino(2-oxoethane-2,1-diyl)]}tris(2,5-dichlorobenzamide) (H NMR analysis).
The citric acid ester of Compound 1 (4-(R,S)-(carboxymethyl)-2-((R)-1-(2-(2,5-dichlorobenzamido)acetamido)-3-methylbutyl)-6-oxo-1,3,2-dioxaborinane-4-carboxylic acid) is obtained as a crystalline solid (Form 1 or Form 2) using the process set forth in US 2009/0325903. The citric acid ester of Compound 1 is stable when stored in the freezer.

[4] = Compound 1 in blood, 0.3 mg/kg IV
[5] = Compound 1 in blood, 1 mg/kg IV
[6] = Compound 1 in blood, 1 mg/kg PO
[7] = Compound 1 in blood, 3 mg/kg PO
[8] = Compound 1 in plasma, 0.3 mg/kg IV
[9] = Compound 1 in plasma, 1 mg/kg IV
[10] = Compound 1 in plasma, 1 mg/kg PO
[11] = Compound 1 in plasma, 3 mg/kg PO

2,5-Dichloro-N—[(R)-1-[1,3,6,2]dioxazaborocan-2-yl-3-methyl-butylcarbamoyl)methyl]-benzamide [boronic ester of Formula X]
HPLC purity after storing for approximately one (1) year [1]: 99.9 A % | AUC0-t [2, 4]: 168 ± 46 ng·h/mL | AUC0-∞ [2, 4]: 190 ± 45 ng·h/mL | CL [2, 4]: 30 ± 6 mL/min/kg | Vd [2, 4]: 5.8 ± 1.9 L/kg | t½ [2, 4]: 2.2 ± 0.4 h | AUC0-t [2, 5]: 509 ± 89 ng·h/mL | AUC0-∞ [2, 5]: 535 ± 100 ng·h/mL | CL [2, 5]: 33 ± 6 mL/min/kg | Vd [2, 5]: 3.9 ± 0.7 L/kg | t½ [2, 5]: 1.4 ± 0.2 h | AUC0-t [2, 6]: 166 ± 16 ng·h/mL | AUC0-∞ [2, 6]: 200 ± 17 ng·h/mL | Cmax [2, 6]: 92 ± 39 ng/mL | Oral Bioavailability [2, 6]: 32 ± 1% | Tmax [2, 6]: 0.3 ± 0.1 h | t½ [2, 6]: 2.8 h | AUC0-t [2, 7]: 336 ± 69 ng·h/mL | AUC0-∞ [2, 7]: 381 ± 78 ng·h/mL | Cmax [2, 7]: 205 ± 84 ng/mL | Oral Bioavailability [2, 7]: 23 ± 4% | Tmax [2, 7]: 0.8 ± 0.6 h | t½ [2, 7]: 1.7 ± 0.2 h | AUC0-t [2, 8]: 449 ± 256 ng·h/mL | AUC0-∞ [2, 8]: 457 ± 254 ng·h/mL | CL [2, 8]: 20 ± 9 mL/min/kg | Vd [2, 8]: 0.9 ± 0.3 L/kg | t½ [2, 8]: 0.6 ± 0.1 h | AUC0-t [2, 9]: 1225 ± 42 ng·h/mL | AUC0-∞ [2, 9]: 1240 ± 47 ng·h/mL | CL [2, 9]: 13 ± 1 mL/min/kg | Vd [2, 9]: 1.2 ± 0.1 L/kg | t½ [2, 9]: 1.1 ± 0.1 h | AUC0-t [2, 10]: 170 ± 16 ng·h/mL | AUC0-∞ [2, 10]: 182 ± 17 ng·h/mL | Cmax [2, 10]: 179 ± 39 ng/mL | Oral Bioavailability [2, 10]: 12 ± 1% | Tmax [2, 10]: 0.3 ± 0.1 h | AUC0-t [2, 11]: 990 ± 310 ng·h/mL | AUC0-∞ [2, 11]: 1029 ± 299 ng·h/mL | Cmax [2, 11]: 567 ± 185 ng/mL | Oral Bioavailability [2, 11]: 27 ± 8% | Tmax [2, 11]: 0.5 ± 0.0 h | t½ [2, 11]: 1.1 ± 0.1 h | oral bioavailability (conclusion in words) ([2]; conclusion from Tables 5-10): orally bioavailable

CC(C)C[C@H](NC(=O)CNC(=O)c1cc(Cl)ccc1Cl)B1OC(=O)CC(CC(=O)O)(C(=O)O)O1 (mixture of isomers) [citric acid ester of Compound 1, 4-(R,S)-(carboxymethyl)-2-((R)-1-(2-(2,5-dichlorobenzamido)acetamido)-3-methylbutyl)-6-oxo-1,3,2-dioxaborinane-4-carboxylic acid, reference compound]
storage stability ([3]; stored in the freezer): stable

CC(C)C[C@H](NC(=O)CNC(=O)c1cc(Cl)ccc1Cl)B1OC(=O)CN(C)CC(=O)O1 [2,5-Dichloro-N—{[(R)-3-methyl-1-(6-methyl-4,8-dioxo-[1,3,6,2]dioxazaborocan-2-yl)-butylcarbamoyl]-methyl}benzamide]
HPLC purity after storing for approximately one (1) year [1]: 84.4 A %

CC(C)C[C@H](NC(=O)CNC(=O)c1cc(Cl)ccc1Cl)B(O)O [Compound 1, [(1R)-1-({[(2,5-dichlorobenzoyl)amino]acetyl}amino)-3-methylbutyl]boronic acid]
storage stability ([3]; ambient conditions): not storage stable | storage stability ([3]; stored in the freezer): stable

CC(C)C[C@H](NC(=O)CNC(=O)c1cc(Cl)ccc1Cl)B1OC(C)CNCC(C)O1 (stereo partly drawn) [boronic ester of Formula IX, 2,5-Dichloro-N-{[(R)-1-(4,8-dimethyl-[1,3,6,2]dioxazaborocan-2-yl)-3-methyl-butylcarbamoyl]-methyl}benzamide]
HPLC purity after storing for approximately one (1) year [1]: 99.8 A %
